Laboratory results from patent US20250249025A1, “DRUG DELIVERY CARRIER UTILIZING PROPERTY OF D-ALLOSE BEING UPTAKEN BY CANCER CELL, DRUG DELIVERY METHOD, AND COMPOSITION FOR TREATING RENAL CELL CARCINOMA” (NATIONAL UNIVERSITY CORPORATION KAGAWA UNIVERSITY, priority 2019, published 2025).

Assays:
[1] = system: renal cell carcinoma cell line (Caki-I); assay: Cell survival assay (MTT assay), Caki-I; assay type: cell-based, human; conditions: 10 mM, 25 mM and 50 mM in MEM, 24 hours, compared with Control (p<0.05), FIG. 2
Procedure: The antitumor effect of rare sugars was analyzed using the three human renal cell carcinoma cell lines (ACHN, Caki-I, and Caki-II) used in Example 1. As the rare sugars, used were the following ten rare sugars: L-allulose, D-allulose, D-allose, L-fructose, D-mannose, L-sorbose, D-tagatose, D-galactose, D-sorbose, and L-tagatose, while as monosaccharides not belonging to rare sugars, D-glucose and D-fructose were used.
As a medium, a minimum essential medium (MEM) containing 1000 mg/l of D-glucose was used. By adjusting it to contain 10 mM, 25 mM, and 50 mM of each of the monosaccharides or rare sugars and using thus-obtained MEMs [shown by (10), (25), and (50) in the drawing], an antitumor effect of the rare sugars was evaluated.
A 5.0×10^4 cells/ml of each of cell suspensions was formed using MEM. The resulting suspension (0.1 ml/well) was distributed in a 96-well plate, followed by culturing for 24 hours. […]
The MTT assay is one of test methods for measuring survival and makes use of a color reaction of an insoluble formazan dye (blue) caused by the reduction of MTT which is a tetrazolium salt. […] The cell viability is determined by measuring this color reaction with a microplate reader.

Caki-I tumor = assay: D-allose concentration in tumor after intraperitoneal injection, Caki-I xenograft mouse model; assay type: in vivo; conditions: Caki-I xenograft mice, 400 mg/kg intraperitoneal
Procedure: The experiment of the present example used two human renal cell carcinoma cell lines (Caki-I and ACHN). Each cell was cultured under the wet environment of 37° C. and 5% CO2 by using a RPMI-1640 culture solution (2000 mg D-glucose/L) containing a 10% fetal calf serum, a HEPES buffer, and penicillin-streptomycin.
With respect to a renal cell carcinoma xenograft mouse model, a 1.0×10^5 cells/ml of a cell suspension was obtained by adjusting the cultured cells with a MEM culture solution and then 0.1 ml of the resulting suspension was injected into the femoral subcutaneous tissue of Female athymic nude mice (BALB/c-nu/nu, 6-week-old). After checking that the tumor volume was 200 mm^3 or more one week after the injection, the mice were provided for the experiment thereafter.
A 400 mg/kg/0.4 mL solution of rare sugar D-allose was prepared using physiological saline and was intraperitoneally injected into the xenograft mouse models of two human renal cell carcinoma cell lines (Caki-I and ACHN) through a 27 G needle. A tumor was enucleated from the mouse before […] administration and 1 hour, 2 hours, and 4 hours after the administration. […] A monosaccharide in the supernatant thus obtained was labeled with ABEE (4-aminobenzoic acid ethyl ester) and the quantitative analysis of D-allose was performed by HPLC (high performance liquid chromatography). […]

[2] = system: human prostate carcinoma cell line PC-3; assay: Rare sugar uptake experiment, sugar content in disrupted cell suspension of PC-3; assay type: cell-based
Procedure: An uptake amount of a rare sugar, which had been added to a medium, into carcinoma cells was analyzed using the cell lines of three types of cancers. As the rare sugar, four kinds, that is, D-allose, D-allulose (D-psicose), L-allulose (L-psicose), and allitol were used, while D-glucose and fructose were used as a monosaccharide which was not a rare sugar.
Cells of each of the cell lines were cultured in RPMI-1640 media and during culturing, six sugars were each added to the resulting media and cultured. After culturing, an amount of each sugar taken up into the cells was analyzed. The medium to which no sugar was added during culturing was used as a control.
Used were human bladder carcinoma cell lines (RT112, 253), and J82), human prostatic carcinoma cell lines (LNCa, Du145, and PC-3), and human renal cell carcinoma cell lines (ACHN, Caki-I, and Caki-II).
After cells were cultured in RPMI-1640 (2000 mg D-glucose/L) media, the above monosaccharides and rare sugars were added to the resulting media, respectively. Described specifically, they were following seven combinations: RPMI-1640 alone (control), RPMI-1640+D-glucose, RPMI-1640+L-allulose, RPMI-1640+D-allulose, RPMI-1640+D-fructose, RPMI-1640+D-allose, and RPMI-1640+D-allitol. The final concentration of the sugar in the medium was adjusted to 10 mM and no sugar was added in the control.
Five-ml portions of a 3.0×10^4 cells/ml cell suspension prepared using RPMI-1640 were seeded in dishes having a diameter of 6 cm (1.5×10^5 cells/dish) and cultured for 24 hours in the RPMI-1640 medium containing 2000 mg/l of D-glucose as a nutrient source. Twenty-four hours later, the media were changed to the culture solutions containing the monosaccharides and rare sugars described above in 2), respectively, followed by culturing for 48 hours.
After culturing for 48 hours, the attached human carcinoma cells were mechanically separated and collected in a Spitz tube together with the culture solution and floating cells. After the supernatant formed by centrifugation (4° C., 1200 rpm, and 5 minutes) was removed to obtain cell pellets alone, 5 ml of a phosphate buffer physiological saline (PBS) was added for the purpose of washing to obtain a cell suspension of the cell pellets. A gain, the resulting cell suspension was centrifuged at 4° C. and 1200 rpm for 5 minutes and the supernatant was removed. To the cell pellets after washing was added 1 ml of pure water to suspend them therein. Ultrasonic disruption (intensity: 40%, 30 seconds) was then performed and the monosaccharide in the disrupted cell suspension was labeled with ABEE, followed by analysis by HPLC. From the area thus obtained, the sugar content in the cells was determined using a calibration curve. With respect to the ketose, two peaks were found after labeling with ABEE so that the sugar content in the cells was determined from the calibration curves of both peaks.

## O=C[C@H](O)[C@H](O)[C@H](O)[C@H](O)CO [D-allose]
[1]
  Viability: significantly reduced the viability
Caki-I tumor; HPLC, FIG. 4
  D-allose in tumor one hour after intraperitoneal injection: detected
Caki-I tumor; sampled 1, 2, 4 hours
  Time after injection at which D-allose concentration in tumor became the highest: one
[2]; PC-3, named sugar added to RPMI-1640 at 10 mM, 48 hours, HPLC after ABEE labeling
  D-glucose content in cell: 3.8 µg
[2]; human, 48 h, 10 mM
  Content in cell of the added sugar: 7.5 µg
